Experimental data from PubChem BioAssay (NCI).
Several values for one entry are separate records, joined by “and”; a condition that tells them apart may be missing. Equal values may be shown once.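 GI50 marks 50% less growth. At the TGI there is no net growth.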

Key:
Experiment in all cases: NCI-60 cell line screen, 384-well format
786-0 renal = system: 786-0 renal
A498 renal = system: A498 renal
A549 NSCLC = system: A549 NSCLC
ACHN renal = system: ACHN renal
BT-549 breast = system: BT-549 breast
CAKI-1 renal = system: CAKI-1 renal
CCRF-CEM leukemia = system: CCRF-CEM leukemia
COLO 205 colon = system: COLO 205 colon
DU-145 prostate = system: DU-145 prostate
EKVX NSCLC = system: EKVX NSCLC
HCC-2998 colon = system: HCC-2998 colon
HCT-116 colon = system: HCT-116 colon
HCT-15 colon = system: HCT-15 colon
HL-60(TB) leukemia = system: HL-60(TB) leukemia
HOP-62 NSCLC = system: HOP-62 NSCLC
HOP-92 NSCLC = system: HOP-92 NSCLC
HS 578T breast = system: HS 578T breast
HT29 colon = system: HT29 colon
IGROV1 ovarian = system: IGROV1 ovarian
K-562 leukemia = system: K-562 leukemia
KM12 colon = system: KM12 colon
LOX IMVI melanoma = system: LOX IMVI melanoma
M14 melanoma = system: M14 melanoma
MALME-3M melanoma = system: MALME-3M melanoma
MCF7 breast = system: MCF7 breast
MDA-MB-231 breast = system: MDA-MB-231 breast
MDA-MB-435 melanoma = system: MDA-MB-435 melanoma
MDA-MB-468 breast = system: MDA-MB-468 breast
MOLT-4 leukemia = system: MOLT-4 leukemia
NCI-H226 lung = system: NCI-H226 lung
NCI-H23 lung = system: NCI-H23 lung
NCI-H322M lung = system: NCI-H322M lung
NCI-H460 NSCLC = system: NCI-H460 NSCLC
NCI-H522 lung = system: NCI-H522 lung
NCI/ADR-RES ovarian = system: NCI/ADR-RES ovarian
OVCAR-3 ovarian = system: OVCAR-3 ovarian
OVCAR-4 ovarian = system: OVCAR-4 ovarian
OVCAR-5 ovarian = system: OVCAR-5 ovarian
OVCAR-8 ovarian = system: OVCAR-8 ovarian
PC-3 prostate = system: PC-3 prostate
RPMI-8226 leukemia = system: RPMI-8226 leukemia
RXF 393 renal = system: RXF 393 renal
SF-268 CNS = system: SF-268 CNS
SF-295 CNS = system: SF-295 CNS
SF-539 CNS = system: SF-539 CNS
SK-MEL-28 melanoma = system: SK-MEL-28 melanoma
SK-MEL-5 melanoma = system: SK-MEL-5 melanoma
SK-OV-3 ovarian = system: SK-OV-3 ovarian
SN12C renal = system: SN12C renal
SNB-19 CNS = system: SNB-19 CNS
SNB-75 CNS = system: SNB-75 CNS
SR leukemia = system: SR leukemia
SW-620 colon = system: SW-620 colon
T-47D breast = system: T-47D breast
TK-10 renal = system: TK-10 renal
U251 glioblastoma = system: U251 glioblastoma
UACC-257 melanoma = system: UACC-257 melanoma
UACC-62 melanoma = system: UACC-62 melanoma
UO-31 renal = system: UO-31 renal

With Cn1cc(-c2nc(N[C@@H]3CCCC[C@@H]3N)c(F)c3c2C(=O)NC3)cn1 the GI50 ([…]-0 renal) was 5.53 µM and 4.81 µM, the TGI (786-0 renal) was 17.9 µM and 18.3 µM and the GI50 (A498 renal) was 0.559 µM and 1.3 µM. For the same compound, the TGI (A498 renal) was 10.4 µM and 8.94 µM, the GI50 (A549 NSCLC) was 4.08 µM and 6.73 µM and the TGI (A549 NSCLC) was 33.2 µM and 32.9 µM. The GI50 (ACHN renal) was 2 µM and 6.59 µM, the TGI (ACHN renal) was 59.2 µM and > 100 µM and the GI50 (BT-549 breast) was 2.17 µM and 5.01 µM. The TGI (BT-549 breast) was 5.18 µM and 15.9 µM, the GI50 (CAKI-1 renal) was 3.22 µM and 4.17 µM and the TGI (CAKI-1 renal) was 19.7 µM and 19.3 µM. The GI50 (CCRF-CEM leukemia) was 1.48 µM and 1.75 µM, the TGI (CCRF-CEM leukemia) was 2.97 µM and 3.26 µM and the GI50 (COLO 205 colon) was 1.45 µM and 1.85 µM. For the same compound, the TGI (COLO 205 colon) was 2.9 µM and 3.53 µM, the GI50 (DU-145 prostate) was 4.08 µM and 9.76 µM and the TGI (DU-145 prostate) was 30.8 µM and 38.1 µM. The GI50 (EKVX NSCLC) was 5.37 µM and 12.8 µM, the TGI (EKVX NSCLC) was 29.5 µM and 62.4 µM and the TGI (HCC-2998 colon) was 20.6 µM and 38.7 µM. For the same compound, the GI50 (HCT-116 colon) was 2.04 µM and 2.98 µM, the TGI (HCT-116 colon) was 17.3 µM and 17.9 µM and the GI50 (HCT-15 colon) was 5.33 µM and 10.6 µM. The TGI (HCT-15 colon) was 28.3 µM and > 100 µM, the GI50 (HL-60(TB) leukemia) was 3.18 µM and 2.76 µM and the TGI (HL-60(TB) leukemia) was 14.7 µM and 13.3 µM. The GI50 (HOP-62 NSCLC) was 2.31 µM and 4.56 µM, the TGI (HOP-62 NSCLC) was 9.99 µM and 16.5 µM and the GI50 (HOP-92 NSCLC) was 3.89 µM and 5.41 µM. For the same compound, the TGI (HOP-92 NSCLC) was 15.6 µM and 18.3 µM, the GI50 (HS 578T breast) was 2.21 µM and 11 µM and the TGI (HS 578T breast) was 12.1 µM and 25.5 µM. The GI50 (HT29 colon) was 4.79 µM and 7.58 µM, the TGI (HT29 colon) was 58.5 µM and 26.6 µM and the GI50 (IGROV1 ovarian) was 2.99 µM and 10.9 µM. For the same compound, the TGI (IGROV1 ovarian) was 28.9 µM and 90.9 µM, the GI50 (K-562 leukemia) was 2.93 µM and 3.44 µM and the TGI (K-562 leukemia) was 14 µM and 18.6 µM. The GI50 (KM12 colon) was 0.339 µM and 0.445 µM, the TGI (KM12 colon) was 25.2 µM and 45.1 µM and the GI50 (LOX IMVI melanoma) was 1.85 µM and 3.58 µM. The TGI (LOX IMVI melanoma) was 3.98 µM and 12.7 µM, the GI50 (M14 melanoma) was 0.615 µM and 1.56 µM and the TGI (M14 melanoma) was 25.7 µM and 14.5 µM. For the same compound, the GI50 (MALME-3M melanoma) was 6.89 µM and 4.15 µM, the TGI (MALME-3M melanoma) was 22.2 µM and 26 µM and the GI50 (MCF7 breast) was 2.89 µM and 19.2 µM. For the same compound, the TGI (MCF7 breast) was 36.5 µM and 81.2 µM, the GI50 (MDA-MB-231 breast) was 5 µM and 10.4 µM and the TGI (MDA-MB-231 breast) was 17.7 µM and 22.9 µM. For the same compound, the GI50 (MDA-MB-435 melanoma) was 4.49 µM and 6.35 µM, the TGI (MDA-MB-435 melanoma) was over 100 µM and the GI50 (MDA-MB-468 breast) was 3.08 µM and 4.3 µM. The TGI (MDA-MB-468 breast) was 6.44 µM and 11.7 µM, the GI50 (MOLT-4 leukemia) was 0.299 µM and 1.14 µM and the GI50 (NCI-H226 lung) was 2.08 µM and 4.38 µM. The TGI (NCI-H226 lung) was 7.05 µM and 27.9 µM, the GI50 (NCI-H23 lung) was 2.17 µM and 4.29 µM and the TGI (NCI-H23 lung) was 13 µM and 17.5 µM. For the same compound, the GI50 (NCI-H322M lung) was 15.5 µM and 28.7 µM, the TGI (NCI-H322M lung) was 38.9 µM and > 100 µM and the GI50 (NCI-H460 NSCLC) was 2.61 µM and 3.15 µM. The TGI (NCI-H460 NSCLC) was 13.5 µM and 14.3 µM, the GI50 (NCI-H522 lung) was 1.64 µM and 3.56 µM and the TGI (NCI-H522 lung) was 6.01 µM and 15.4 µM. The GI50 (NCI/ADR-RES ovarian) was 38.8 µM and > 100 µM, the TGI (NCI/ADR-RES ovarian) was over 100 µM and the GI50 (OVCAR-3 ovarian) was 9.28 µM and 9.39 µM. The TGI (OVCAR-3 ovarian) was 24.7 µM and 34.3 µM, the GI50 (OVCAR-4 ovarian) was 15.2 µM and 21.4 µM and the TGI (OVCAR-4 ovarian) was 30.5 µM and 43.7 µM. For the same compound, the GI50 (OVCAR-5 ovarian) was 6.09 µM, the TGI (OVCAR-5 ovarian) was 21.6 µM and the GI50 (OVCAR-8 ovarian) was 6.08 µM and 12.2 µM. The TGI (OVCAR-8 ovarian) was 19.4 µM and 25.2 µM, the GI50 (PC-3 prostate) was 9.39 µM and 15.4 µM and the TGI (PC-3 prostate) was 45.3 µM and 86.9 µM. The GI50 (RPMI-8226 leukemia) was 0.537 µM and 1.52 µM, the TGI (RPMI-8226 leukemia) was 2.19 µM and 4.13 µM and the GI50 (RXF 393 renal) was 0.596 µM and 2.12 µM. The TGI (RXF 393 renal) was 3.57 µM and 13 µM, the GI50 (SF-268 CNS) was 2.79 µM and 9.19 µM and the TGI (SF-268 CNS) was 15.2 µM and 45.5 µM. The GI50 (SF-295 CNS) was 0.675 µM and 3.12 µM, the TGI (SF-295 CNS) was 2.81 µM and 11.7 µM and the GI50 (SF-539 CNS) was 1.35 µM and 3.09 µM. For the same compound, the TGI (SF-539 CNS) was 3.56 µM and 13 µM, the GI50 (SK-MEL-28 melanoma) was 10.2 µM and 11.2 µM and the TGI (SK-MEL-28 melanoma) was 66.1 µM and > 100 µM. For the same compound, the TGI (SK-MEL-5 melanoma) was 17.8 µM and 34.5 µM, the GI50 (SK-OV-3 ovarian) was 2.07 µM and 10.8 µM and the TGI (SK-OV-3 ovarian) was 21.5 µM and 65.8 µM. The GI50 (SN12C renal) was 2.09 µM and 1.95 µM, the TGI (SN12C renal) was 10.9 µM and 7.66 µM and the GI50 (SNB-19 CNS) was 17.8 µM and 19.4 µM. The TGI (SNB-19 CNS) was 33.7 µM and 39.1 µM, the GI50 (SNB-75 CNS) was 1.88 µM and 5.16 µM and the TGI (SNB-75 CNS) was 4.98 µM and 19.4 µM. The GI50 (SR leukemia) was 0.535 µM and 0.17 µM, the TGI (SR leukemia) was 1.78 µM and 0.447 µM and the GI50 (SW-620 colon) was 2.37 µM and 5.69 µM. For the same compound, the TGI (SW-620 colon) was 7.78 µM and 25.8 µM, the GI50 (T-47D breast) was 32.5 µM and 56.3 µM and the TGI (T-47D breast) was 85.3 µM and > 100 µM. For the same compound, the GI50 (TK-10 renal) was 3.87 µM and 12.1 µM, the TGI (TK-10 renal) was 17.5 µM and 26.9 µM and the GI50 (U251 glioblastoma) was 14.2 µM and 17.6 µM. The TGI (U251 glioblastoma) was 27.9 µM and 32.8 µM, the GI50 (UACC-257 melanoma) was 12.8 µM and 33.7 µM and the TGI (UACC-257 melanoma) was 33.4 µM and > 100 µM. The GI50 (UACC-62 melanoma) was 13.3 µM, the TGI (UACC-62 melanoma) was 39.5 µM and the GI50 (UO-31 renal) was 7.89 µM and 11 µM. The TGI (UO-31 renal) was 20.5 µM and 23.2 µM.
